Measurements published in the NIST ThermoML archive (doi:10.1016/j.tca.2011.10.010).
Numbers after ± are expanded uncertainties.

Assay: xn = mol fraction of the nth substance listed
Settings: 101 kPa, Liquid, Vibrating tube method

CCN(CC)CCO.Cl [2-(diethylamino)ethanol hydrochloride] + OCC(O)CO
mass density [kg/m3]
Settings | x1 = 0.2 | x1 = 0.25 | x1 = 0.33
298.15 K | 1220.1 ± 12 | 1205.1 ± 12 | –
303.15 K | 1217.3 ± 12 | 1202 ± 12 | 1170 ± 12
308.15 K | 1214.1 ± 12 | 1199 ± 12 | –
313.15 K | 1211.4 ± 12 | 1196.1 ± 12 | 1163.8 ± 12
318.15 K | 1208.1 ± 12 | 1192.9 ± 12 | –
323.15 K | 1204.8 ± 12 | 1188.4 ± 12 | 1158.5 ± 12
328.15 K | 1202.1 ± 12 | 1186.8 ± 12 | –
333.15 K | 1198.9 ± 12 | 1184 ± 12 | 1153.1 ± 12
338.15 K | 1196.1 ± 12 | 1180.7 ± 12 | –
343.15 K | 1193.6 ± 12 | 1177.7 ± 12 | 1145.8 ± 12
348.15 K | 1190.1 ± 12 | 1174.6 ± 12 | –
353.15 K | 1187.3 ± 12 | 1171.9 ± 12 | 1140.3 ± 12
358.15 K | 1184.1 ± 12 | 1168.5 ± 12 | –
363.15 K | 1180.7 ± 12 | 1166.1 ± 12 | 1134.4 ± 12
368.15 K | 1178.1 ± 12 | 1162.4 ± 12 | –

C[P+](c1ccccc1)(c1ccccc1)c1ccccc1.[Br-] [methyltriphenylphosphonium bromide] + OCCO
mass density [kg/m3]
Settings | 303.15 K | 313.15 K | 323.15 K | 333.15 K | 343.15 K | 353.15 K | 363.15 K
x1 = 0.16 | 1216.3 ± 12 | 1208.6 ± 12 | 1202 ± 12 | 1194.7 ± 12 | 1187 ± 12 | 1179.2 ± 12 | 1172.3 ± 12
x1 = 0.2 | 1229 ± 12 | 1222 ± 12 | 1215.1 ± 12 | 1207.9 ± 12 | 1200.6 ± 12 | 1193.6 ± 12 | 1186.4 ± 12
x1 = 0.25 | 1242.4 ± 13 | 1239.8 ± 13 | 1232.4 ± 12 | 1226 ± 12 | 1218.8 ± 12 | 1211.9 ± 12 | 1204.5 ± 12

C[N+](C)(C)CCO.[Cl-] [choline chloride] + OCC(O)CO
mass density [kg/m3]
Settings | x1 = 0.25 | x1 = 0.33 | x1 = 0.5
298.15 K | 1203 ± 12 | 1192 ± 12 | –
303.15 K | 1200.2 ± 12 | 1189.5 ± 12 | 1153.5 ± 12
308.15 K | 1197.6 ± 12 | 1186.7 ± 12 | –
313.15 K | 1195.1 ± 12 | 1183.8 ± 12 | 1148.3 ± 12
318.15 K | 1192.2 ± 12 | 1181.4 ± 12 | –
323.15 K | 1189.1 ± 12 | 1177.6 ± 12 | 1143 ± 12
328.15 K | 1186.8 ± 12 | 1176.1 ± 12 | –
333.15 K | 1184.4 ± 12 | 1174.1 ± 12 | 1137.9 ± 12
338.15 K | 1181.4 ± 12 | 1170.8 ± 12 | –
343.15 K | 1178.1 ± 12 | 1167.4 ± 12 | 1132.6 ± 12
348.15 K | 1176 ± 12 | 1165.5 ± 12 | –
353.15 K | 1173.2 ± 12 | 1163.5 ± 12 | 1126.6 ± 12
358.15 K | 1170.6 ± 12 | 1160.2 ± 12 | –
363.15 K | 1167.8 ± 12 | 1157.1 ± 12 | 1122 ± 12
368.15 K | 1165.2 ± 12 | 1154.9 ± 12 | –
